In patent US8952024B2, “Herbicidal pyrimidone derivatives” (E I du Pont de Nemours and Company, priority 2009, dated 2015):

What was measured:
Format in all cases: in vivo
[1] = system: chickweed (Stellaria media); assay: Test B postemergence plant response; details: Postemergence
Outline: (§1)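 Visual ratings from 0 (no effect) to 100 (complete control), made against controls 13–15 days after treatment, kept in a greenhouse. Compounds were applied postemergence to potted plants at the 1- to 4-leaf stage (2–18 cm).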

[2] = system: windgrass (Apera spica-venti); assay: Test B postemergence plant response; details: Postemergence
Outline: as §1

[3] = system: canarygrass (Phalaris minor); assay: Test B postemergence plant response; details: Postemergence
Outline: as §1

[4] = system: cocklebur (Xanthium strumarium); assay: Test B pre-/postemergence plant response
Outline: (§2)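 Visual injury, 0–100 scale (100 = complete control), rated against controls after 13 to 15 days in greenhouse. Pre-emergence: seeds in loam/sand soil, treated at planting. Post-emergence: 1- to 4-leaf plants (2 to 18 cm) in peat/vermiculite medium. Compounds formulated in non-phytotoxic solvent with surfactant.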

[5] = system: wheat (Triticum aestivum); assay: Test B pre-/postemergence plant response
Outline: as §2

[6] = system: ragweed (common ragweed, Ambrosia elatior); assay: Test B pre-/postemergence plant response
Outline: as §2

[7] = system: giant foxtail (Setaria faberii); assay: Test B pre-/postemergence plant response
Outline: as §2

wild oat (Avena fatua) = assay: Test B pre-/postemergence plant response
Outline: as §2

[8] = system: downy bromegrass (Bromus tectorum); assay: Test B pre-/postemergence plant response
Outline: as §2

[9] = system: johnsongrass (Sorghum halepense); assay: Test B pre-/postemergence plant response
Outline: as §2

soybean (Glycine max) = assay: Test B pre-/postemergence plant response
Outline: as §2

[10] = system: bermudagrass (Cynodon dactylon); assay: Test B pre-/postemergence plant response
Outline: as §2

[11] = system: blackgrass (Alopecurus myosuroides); assay: Test B pre-/postemergence plant response
Outline: as §2

[12] = system: morningglory (Ipomoea coccinea); assay: Test B pre-/postemergence plant response
Outline: as §2

[13] = system: green foxtail (Setaria viridis); assay: Test B pre-/postemergence plant response
Outline: as §2

[14] = system: yellow nutsedge (Cyperus esculentus); assay: Test B pre-/postemergence plant response
Outline: as §2

[15] = system: velvetleaf (Abutilon theophrasti); assay: Test B pre-/postemergence plant response
Outline: as §2

kochia (Kochia scoparia) = assay: Test B pre-/postemergence plant response; details: Preemergence
Outline: as §2

[16] = 125 g ai/ha, visual rating after 13 to 15 days, scale 0 (no effect) to 100 (complete control)
[17] = 31 g ai/ha, scale 0 to 100 (0 no effect, 100 complete control)
[18] = 62 g ai/ha, scale 0 (no effect) to 100 (complete control), 13 to 15 days
[19] = 250 g ai/ha, Preemergence, 0 to 100 scale
[20] = Postemergence, 31 g ai/ha, scale 0 to 100 (0 no effect, 100 complete control)
[21] = Postemergence, 62 g ai/ha, scale 0 (no effect) to 100 (complete control), 13 to 15 days
[22] = Postemergence, 125 g ai/ha, visual rating after 13 to 15 days, scale 0 (no effect) to 100 (complete control)
[23] = Postemergence, 250 g ai/ha, scale 0 to 100
[24] = Preemergence, 31 g ai/ha, scale 0 to 100 (0 no effect, 100 complete control)
[25] = Preemergence, 62 g ai/ha, scale 0 to 100, 0 no effect, 100 complete control
[26] = Preemergence, 125 g ai/ha, 0 to 100 scale

Structure (SMILES): O=C1CCCC([O-])=C1C(=O)c1cnc(-c2ccccc2)n(-c2ccccc2)c1=O.[K+] [Compound 14]
- Plant response rating, Chickweed [1, 16]: 80
- Chickweed plant response rating ([1]; 250 g ai/ha, scale 0 to 100): 80
- Plant response rating, Windgrass [2, 17]: 5
- Plant response rating, Windgrass [2, 18]: 30
- Plant response rating, Windgrass [2, 16]: 30
- Windgrass plant response rating ([2]; 250 g ai/ha, scale 0 to 100): 50
- Plant response rating, Canarygrass [3, 17]: 10
- Plant response rating, Canarygrass [3, 18]: 20
- Plant response rating, Canarygrass [3, 16]: 20
- Canarygrass plant response rating ([3]; 250 g ai/ha, scale 0 to 100): 50
- Plant response rating, Cocklebur [4, 19]: 95
- Plant response rating, Cocklebur [4, 20]: 80
- Plant response rating, Cocklebur [4, 21]: 90
- Plant response rating, Cocklebur [4, 22]: 90
- Cocklebur plant response rating [4, 23]: 98
- Plant response rating, Cocklebur [4, 24]: 0
- Plant response rating, Cocklebur [4, 25]: 85
- Cocklebur plant response rating [4, 26]: 85
- Plant response rating, Wheat [5, 19]: 0
- Plant response rating, Wheat [5, 20]: 0
- Plant response rating, Wheat [5, 21]: 0
- Plant response rating, Wheat [5, 22]: 0
- Wheat plant response rating [5, 23]: 20
- Plant response rating, Wheat [5, 24]: 0
- Plant response rating, Wheat [5, 25]: 0
- Wheat plant response rating [5, 26]: 0
- Plant response rating, Ragweed [6, 19]: 90
- Plant response rating, Ragweed [6, 20]: 80
- Plant response rating, Ragweed [6, 21]: 80
- Plant response rating, Ragweed [6, 22]: 85
- Ragweed plant response rating [6, 23]: 98
- Plant response rating, Ragweed [6, 24]: 70
- Plant response rating, Ragweed [6, 25]: 90
- Ragweed plant response rating [6, 26]: 90
- Plant response rating, Foxtail, Giant [7, 19]: 90
- Plant response rating, Foxtail, Giant [7, 20]: 50
- Plant response rating, Foxtail, Giant [7, 21]: 70
- Plant response rating, Foxtail, Giant [7, 22]: 80
- Foxtail, Giant plant response rating [7, 23]: 95
- Plant response rating, Foxtail, Giant [7, 24]: 0
- Plant response rating, Foxtail, Giant [7, 25]: 10
- Foxtail, Giant plant response rating [7, 26]: 75
- Plant response rating, Oat, Wild (wild oat (Avena fatua); [19]): 0
- Plant response rating, Oat, Wild (wild oat (Avena fatua); [20]): 30
- Plant response rating, Oat, Wild (wild oat (Avena fatua); [21]): 40
- Plant response rating, Oat, Wild (wild oat (Avena fatua); [22]): 50
- Oat, Wild plant response rating (wild oat (Avena fatua); [23]): 50
- Plant response rating, Oat, Wild (wild oat (Avena fatua); [24]): 0
- Plant response rating, Oat, Wild (wild oat (Avena fatua); [25]): 0
- Oat, Wild plant response rating (wild oat (Avena fatua); [26]): 0
- Plant response rating, Bromegrass, Downy [8, 19]: 0
- Plant response rating, Bromegrass, Downy [8, 20]: 10
- Plant response rating, Bromegrass, Downy [8, 21]: 30
- Plant response rating, Bromegrass, Downy [8, 22]: 50
- Bromegrass, Downy plant response rating [8, 23]: 70
- Plant response rating, Bromegrass, Downy [8, 24]: 0
- Plant response rating, Bromegrass, Downy [8, 25]: 0
- Bromegrass, Downy plant response rating [8, 26]: 0
- Plant response rating, Johnsongrass [9, 19]: 95
- Plant response rating, Johnsongrass [9, 20]: 45
- Plant response rating, Johnsongrass [9, 21]: 80
- Plant response rating, Johnsongrass [9, 22]: 80
- Johnsongrass plant response rating [9, 23]: 80
- Plant response rating, Johnsongrass [9, 24]: 5
- Plant response rating, Johnsongrass [9, 25]: 30
- Johnsongrass plant response rating [9, 26]: 80
- Plant response rating, Soybean (soybean (Glycine max); [19]): 85
- Plant response rating, Soybean (soybean (Glycine max); [20]): 80
- Plant response rating, Soybean (soybean (Glycine max); [21]): 85
- Plant response rating, Soybean (soybean (Glycine max); [22]): 90
- Soybean plant response rating (soybean (Glycine max); [23]): 90
- Plant response rating, Soybean (soybean (Glycine max); [24]): 25
- Soybean plant response rating (soybean (Glycine max); [26]): 50
- Plant response rating, Bermudagrass [10, 19]: 100
- Plant response rating, Bermudagrass [10, 20]: 70
- Plant response rating, Bermudagrass [10, 21]: 70
- Plant response rating, Bermudagrass ([10]; Postemergence, 125 g ai/ha, scale 0 to 100 (0 no effect, 100 complete control), 13 to 15 days): 80
- Bermudagrass plant response rating [10, 23]: 80
- Plant response rating, Bermudagrass [10, 24]: 70
- Plant response rating, Bermudagrass [10, 25]: 75
- Bermudagrass plant response rating [10, 26]: 100
- Plant response rating, Blackgrass [11, 19]: 0
- Plant response rating, Blackgrass [11, 20]: 0
- Plant response rating, Blackgrass [11, 21]: 0
- Plant response rating, Blackgrass [11, 22]: 5
- Blackgrass plant response rating [11, 23]: 5
- Plant response rating, Blackgrass [11, 24]: 0
- Plant response rating, Blackgrass [11, 25]: 0
- Blackgrass plant response rating [11, 26]: 0
- Plant response rating, Morningglory [12, 19]: 100
- Plant response rating, Morningglory [12, 20]: 70
- Plant response rating, Morningglory [12, 21]: 70
- Plant response rating, Morningglory [12, 22]: 80
- Morningglory plant response rating [12, 23]: 95
- Plant response rating, Morningglory [12, 24]: 100
- Plant response rating, Morningglory [12, 25]: 100
- Morningglory plant response rating [12, 26]: 100
- Plant response rating, Foxtail, Green [13, 19]: 60
- Plant response rating, Foxtail, Green [13, 20]: 45
- Plant response rating, Foxtail, Green [13, 21]: 45
- Plant response rating, Foxtail, Green [13, 22]: 50
- Foxtail, Green plant response rating [13, 23]: 85
- Plant response rating, Foxtail, Green [13, 24]: 0
- Plant response rating, Foxtail, Green [13, 25]: 0
- Foxtail, Green plant response rating [13, 26]: 10
- Plant response rating, Nutsedge, Yellow [14, 19]: 85
- Plant response rating, Nutsedge, Yellow [14, 20]: 20
- Plant response rating, Nutsedge, Yellow [14, 21]: 30
- Plant response rating, Nutsedge, Yellow [14, 22]: 30
- Nutsedge, Yellow plant response rating [14, 23]: 50
- Plant response rating, Nutsedge, Yellow [14, 24]: 0
- Plant response rating, Nutsedge, Yellow [14, 25]: 30
- Nutsedge, Yellow plant response rating [14, 26]: 40
- Plant response rating, Velvetleaf [15, 19]: 100
- Plant response rating, Velvetleaf [15, 20]: 85
- Plant response rating, Velvetleaf [15, 21]: 90
- Plant response rating, Velvetleaf [15, 22]: 90
- Velvetleaf plant response rating [15, 23]: 100
- Plant response rating, Velvetleaf [15, 24]: 70
- Plant response rating, Velvetleaf [15, 25]: 98
- Velvetleaf plant response rating [15, 26]: 100
- Plant response rating, Kochia (kochia (Kochia scoparia); 250 g ai/ha, 0 to 100 scale): 100
- Plant response rating, Kochia (kochia (Kochia scoparia); [17]): 85
- Plant response rating, Kochia (kochia (Kochia scoparia); 62 g ai/ha, scale 0 to 100, 0 no effect, 100 complete control): 100
- Kochia plant response rating (kochia (Kochia scoparia); 125 g ai/ha, 0 to 100 scale): 100
